Experimental data as given in patent US20160326098A1, “Pharmaceutically Active Compound for Use as Anti-inflammatory Agent” (Pax Forschung GmbH, priority 2013, published 2016).

Experiments:
Format in all cases: in vivo
nitrite/nitrate (NOx) [1] = assay: Nitrite/nitrate level in blood, rats with gastric injury without inflammation; settings: 1.11 mmol/kg, vs control group H, FIG. 25
Method: The levels of plasma nitrite/nitrate (NOx), stable end products of NO were measured by the Griess reaction. This assay depends on the reduction of nitrate to nitrite, which is then converted into a colored azo dye compound that is detected spectrophotometrically at 540 nm.
Further experiments regarding the effect of a compound of formula (I) and a pharmaceutical composition comprising a compound of formula (I), respectively, on gastric injury without inflammation were conducted on rats. 15 animals were randomly allocated into three groups. Group H (n=5) served as sham-operated controls. Samples of all animals were drawn on day 1 of the clinical tests. On day 2 the animals of group I (n=5) were force-fed acetylsalicylic acid (ASS) (1.11 mmol/kg body weight). Group K (n=5) was force-fed 1.11 mmol/kg body weight of the compound according to the invention. Group H only received the respective solvent (25% ethanol in water). One day after the gavage, additional samples were drawn. Fluorescence confocal endomicroscopy was performed to examine the microvasculature and morphologic changes of the mucosa of the distal colon, and full-thickness tissue samples and venous blood samples were taken to determine the biochemical changes in the colon and plasma. The effects were determined by way of measurement of body weight, blood gas analysation and biopsy. […]

gastric mucosa = assay: Macroscopic analysis (score) of gastric mucosa damage, mice; settings: 1.11 mmol/kg, vs groups A and C, FIG. 10
Method: (§1) First experiments regarding the effect of the compound of formula (I) and a pharmaceutical composition comprising the compound of formula (I) (clear aqueous solution of compound of formula (I) at pH 4.8), respectively, on gastric injury without inflammation were conducted on mice. 48 animals were randomly allocated into three groups. Group A (n=16) served as sham-operated controls. Samples of all animals were drawn on day 1 of the clinical tests. On day 2 the animals of group B (n=16) were force-fed acetylsalicylic acid (ASS) (1.11 mmol/kg body weight). Group C (n=16) was force-fed 1.11 mmol/kg body weight of the compound according to the invention. Group A only received the respective solvent (25% ethanol in water). One day after the gavage, additional samples were drawn. Fluorescence confocal endomicroscopy was performed to examine the microvasculature and morphologic changes of the mucosa of the distal colon, and full-thickness tissue samples and venous blood samples were taken to determine the biochemical changes in the colon and plasma. The effects were determined by way of measurement of body weight, blood gas analysation and biopsy. […]
The average of the three criteria is calculated for the animals of each group, wherein “0” means for criteria 1 small or no bleeding area, for criteria 2 no bleeding area and for criteria 3 no ulcer. […]

nitrite/nitrate (NOx) [2] = assay: Tissue nitrite/nitrate level, mice with gastric injury without inflammation; settings: gastric and duodenal tissue, 1.11 mmol/kg, vs control group A and group C, FIGS. 7a/7b
Method: […] This assay depends on the reduction of nitrate to nitrite, which is then converted into a colored azo dye compound that is detected spectrophotometrically at 540 nm.
as §1

[3] = test system: High mobility group box protein 1 (HMGB-1); assay: Plasma high-mobility group protein B1, rats with TNBS-induced colitis; settings: 1.11 mmol/kg, day 3, FIG. 31
Method: Colonic inflammation was induced by intracolonic administration of TNBS (2,4,6-trinitrobenzenesulfonic acid) (40 mg/kg in 0.25 ml of 25% aqueous ethanol) through an 8-cm-long soft plastic catheter under transient diethylether anesthesia. In the sham-operated groups, only the vehicle for TNBS was administered. The animals were deprived of food, but not water, for 12 h before the enemas.
High mobility group box protein 1 (HMGB-1) measurements in plasma:
Blood samples were drawn into chilled polypropylene tubes containing EDTA (1 mg/ml) and were centrifuged at 1200 g for 10 min at 4° C. The plasma samples were then collected and stored at −70° C. until assay. Plasma concentration of HMGB-1 was measured by a commercially available HMGB-1 ELISA kit (Shino-Test Corporation, Kanagawa, Japan).
The above-described clinical studies were repeated with animals having colitis which was induced as described above. […] Two days after the enema the effects of the treatment were determined by measurement of body weight, blood gas analysis and biopsy. […] Surgery was performed to allow registration of the hemodynamic parameters at 1 h intervals for 6 h (cardiac output [CO] data were measured only at the end of the experiments). […]

CC(=O)Oc1ccccc1C(=O)O [ASS, acetylsalicylic acid, reference compound]
nitrite/nitrate level in the blood (nitrite/nitrate (NOx) [1]): increased nitrite/nitrate level
macroscopic analysis of the mucosa (score) (gastric mucosa): significant damage of the mucosa
nitrite/nitrate level (nitrite/nitrate (NOx) [2]): significant difference in the nitrite/nitrate level

CC(=O)Oc1ccccc1C(=O)NC(CO)(CO)CO [compound according to the invention]
concentration of the high-mobility group protein B1 in the plasma [3]: significant reduction
